Measured values as given in US20210321612A1, “USE OF QUERCETIN IN PLANT AGING PROMOTER” (TOBACCO RESEARCH INSTITUTE OF CHINESE ACADEMY OF …, priority 2019, published 2021).

Tests used:
Format in all cases: in vivo
[1] = tested on: Honghuadajinyuan tobacco; assay: Spraying the quercetin plant senescence accelerator onto common tobacco in fields; conditions: 10 μmol/L; attached leaves of tobacco; FIG. 5B
From the text: Experimental test 5: Effects of spraying the quercetin plant senescence accelerator onto common tobacco in fields It could be found from the experimental test 4 that 10 μmol/L was the optimal concentration of the quercetin plant senescence accelerator to accelerate mature and yellowing of tobacco leaves. Further, Honghuadajinyuan tobacco was sprayed with the quercetin plant senescence accelerator finished product, and the accelerating effect of the accelerator on the senescence of plant leaves was observed. The specific results were shown in FIGS. 5A-5D, and the experimental groups and their results were described below. The quercetin plant senescence accelerator having a concentration of 0 (the control group) and the quercetin plant senescence accelerator having a concentration of 10 μmol/L were sprayed onto living plants of common tobacco.

[2] = tested on: living plants of Nicotiana benthamiana; assay: Spraying the quercetin plant senescence accelerator onto attached leaves of Nicotiana benthamiana; conditions: attached leaves sprayed at 1, 10 and 20 μmol/L; FIG. 4B
From the text: Experimental test 4: Effects of spraying the quercetin plant senescence accelerator onto attached leaves of Nicotiana benthamiana Living plants of Nicotiana benthamiana were sprayed with the quercetin plant senescence accelerator finished product in Embodiment 3, and the accelerating effect of the accelerator on the senescence of plant leaves was observed. The specific results were shown in FIGS. 4A-4C, and the experimental groups and their results were described below. Experimental group: living plants of Nicotiana benthamiana were sprayed with the quercetin plant senescence accelerators having concentrations of 1 μmol/L, 10 μmol/L and 20 μmol/L, respectively. Control group: living plants of Nicotiana benthamiana were sprayed with the 1/2 MS solution of 2-(N-morpholino)ethanesulfonic acid in which the concentration of 2-(N-morpholino)ethanesulfonic acid was 2.9 mmol/L.

[3] = tested on: living plants of Arabidopsis thaliana; assay: Spraying the quercetin plant senescence accelerator onto living plants of Arabidopsis thaliana; conditions: attached leaves sprayed at 10 and 20 μmol/L; FIG. 3B
From the text: Experimental test 3: Effects of spraying the quercetin plant senescence accelerator onto living plants of Arabidopsis thaliana Living plants of Arabidopsis thaliana were sprayed with the quercetin plant senescence accelerator finished products prepared by the preparation method provided in one of Embodiments 1-3 of the present application, and the accelerating effect of the accelerator on the senescence of plant leaves was observed. The specific results were shown in FIGS. 3A-3C, and the experimental groups and their results were described below. Experimental group: living plants of Arabidopsis thaliana were sprayed with the quercetin plant senescence accelerators with concentrations of 10 μmol/L and 20 μmol/L in Embodiment 2, respectively. Control group: living plants Arabidopsis thaliana were sprayed with the 1/2 MS solution of 2-(N-morpholino)ethanesulfonic acid in which the concentration of 2-(N-morpholino)ethanesulfonic acid was 3 mmol/L.

Measured: content of chlorophyll in leaves

O=c1c(O)c(-c2ccc(O)c(O)c2)oc2cc(O)cc(O)c12 [quercetin]
significantly reduced: all assays above
